Five compounds from publication PMC7108845, “An Alphaherpesvirus Exploits Antimicrobial β-Defensins To Initiate Respiratory Tract Infection” (Journal of Virology, 2020) can be followed below.

Assay [1] has as its system EHV1 (isolate 03P37). It is filed as cell-based, equine herpesvirus type 1.
Assay [2] relates to equine arteritis virus (08P178). In kind it is cell-based.
For assay [3], the system named is equine CD172a+ monocytic cells. Nature of the assay: CytoSelect cell migration (chemotaxis) assay. The note with it: 0 to 10 μg/ml, 96-well Boyden chamber.
Assay [4] concerns EHV1 particles binding to RK13 cells. In kind it is cell-based, equine herpesvirus type 1.
Assay [5] has as its system Streptococcus equi subsp. equi (3830). Put plainly: MIC assay, bacterial growth inhibition. In kind it is cell-based. The note with it: Gram-positive; Mueller-Hinton II broth, ~10^6 CFU/ml, 0 to 100 μg/ml eBD, 24 h, 37°C, 5% CO2; lowest concentration with no visible bacterial growth. The method, then:
(§1) To ensure that eBD1, -2, and -3 are potent antimicrobial peptides, a MIC test was performed to determine inhibition of the growth of a number of Gram-positive and Gram-negative bacteria found in the equine respiratory tract by eBDs. The examined concentration range of eBDs ([…] to 100 μg/ml) was chosen based on the antimicrobially active concentration range of human BDs ([21][–][25]).
(§2) Clinical bacterial isolates were used in a MIC assay to investigate the sensitivity of bacterial pathogens from the equine respiratory tract to eBDs. The test organisms included the Gram-positive bacteria Streptococcus equi subsp. zooepidemicus (strain 4001), Streptococcus equi subsp. equi (strain 3830), Staphylococcus aureus (strain 3939), and Rhodococcus equi (strain 3851) and the Gram-negative bacteria Actinobacillus equuli subsp. equuli (strain 4005) and Bordetella bronchiseptica (strain 3033). All organisms were grown on Oxoid sheep blood agar plus plates (Thermo Fisher Scientific) overnight in a humidified incubator (5% CO2) at 37°C. Inocula were prepared by swabbing bacterial colonies from the plates, suspending them in PBS (turbidity equivalent to a 0.5 McFarland standard), and diluting this suspension 1:100 in Mueller-Hinton II (MH) broth (BD Biosciences, San Jose, CA, USA), achieving a final concentration of approximately 10^6 CFU/ml. eBDs were serially 2-fold diluted in MH broth at concentrations ranging from 200 μg/ml to 0.02 μg/ml and pipetted into 96-well microtiter plates (Greiner Bio, Kremsmünster, Austria). The inoculum was added to the eBD dilutions 1:1, and the bacteria were incubated in a humidified incubator (5% CO2) at 37°C for 24 h. MIC values were determined as the lowest concentration of eBD at which there was no visible bacterial growth.

Assay [6] deals with Rhodococcus equi (3851). Put plainly: MIC assay, bacterial growth inhibition. In kind it is cell-based. The note with it: Gram-positive; Mueller-Hinton II broth, ~10^6 CFU/ml, 0 to 100 μg/ml eBD, 24 h, 37°C, 5% CO2; lowest concentration with no visible bacterial growth. The method, then: as §1, §2
The subject of assay [7] is Staphylococcus aureus (3939). Put plainly: MIC assay, bacterial growth inhibition. In kind it is cell-based. The note with it: Gram-positive; Mueller-Hinton II broth, ~10^6 CFU/ml, 0 to 100 μg/ml eBD, 24 h, 37°C, 5% CO2; lowest concentration with no visible bacterial growth. As for the experimental part: as §1, §2
The test system of assay [8] is Actinobacillus equuli subsp. equuli (4005). Nature of the assay: MIC assay, bacterial growth inhibition. In kind it is cell-based. The note with it: Gram-negative; Mueller-Hinton II broth, ~10^6 CFU/ml, 0 to 100 μg/ml eBD, 24 h, 37°C, 5% CO2; lowest concentration with no visible bacterial growth. As for the experimental part:
as §1, §2

In assay [9] the test system is Bordetella bronchiseptica (3033). Nature of the assay: MIC assay, bacterial growth inhibition. It is filed as cell-based. The note with it: Gram-negative; Mueller-Hinton II broth, ~10^6 CFU/ml, 0 to 100 μg/ml eBD, 24 h, 37°C, 5% CO2; lowest concentration with no visible bacterial growth. The method, then: as §1, §2
For assay [10], the system named is Streptococcus equi subsp. zooepidemicus (4001). Nature of the assay: MIC assay, bacterial growth inhibition. The note with it: Gram-positive; Mueller-Hinton II broth, ~10^6 CFU/ml, 0 to 100 μg/ml eBD, 24 h, 37°C, 5% CO2; lowest concentration with no visible bacterial growth. It is filed as cell-based. The method, then:
as §1, §2

Assay [11] has as its system equine influenza virus (A/equine/Kentucky/98, H3N8). In kind it is cell-based.
Assay [12] has as its system equine polymorphonuclear (PMN) cells. Nature of the assay: CytoSelect cell migration (chemotaxis) assay. The note with it: 0 to 10 μg/ml; 96-well Boyden chamber, 5-μm pores; RFU; three donor horses.
Assay [13] concerns EIV. It is filed as cell-based, equine influenza virus.
Assay [14] concerns EHV1 particles binding to EREC. In kind it is cell-based, equine herpesvirus type 1.
Assay [15] concerns equine CD3+ T lymphocytes. Put plainly: CytoSelect cell migration (chemotaxis) assay. The note with it: 0 to 10 μg/ml; 96-well Boyden chamber, 5-μm pores; RFU; three donor horses.
For assay [16], the system named is EHV1 RacL11 ΔgM. In kind it is cell-based, equine herpesvirus type 1.
Assay [17] concerns EHV1 RacL11 Δgp2. In kind it is cell-based, equine herpesvirus type 1.
Assay [18] has as its system EHV1. It is filed as cell-based, equine herpesvirus type 1.
The test system of assay [19] is EHV1 RacL11. It is filed as cell-based, equine herpesvirus type 1.

As for `Nc1nc(O)c2ncn(COC(CO)CO)c2n1` [ganciclovir, reference compound], the “formation and spread of EHV1 plaques” value in assay [1] is given as “almost completely blocked”.

heparin [reference compound]: in [1], the “EHV1 final plaque diameter in RK13 cells” value is listed as “did not alter” and the “EHV1 plaque formation in RK13 cells” value is recorded as “inhibited”.

In general, MIC refers to the lowest concentration that inhibits growth of the organism. Low readings indicate greater potency, high ones weaker potency. “MRAPYFLLLTLCLFCCQMSSGVGYLTGLGHRSDHYICARSGGTCHFSSCPLFTKIEGTCYGGKAKCCL (also: bicyclic or more (positions not given here)) [eBD1, chemically synthesized equine β-defensin, named according to its human homolog]”: the “protection of cells from subsequent EAV infection” value in assay [2] is “failed to protect”. In addition, the “chemotaxis of equine monocytic cells” value in assay [3] is on record as “failed to induce”. Besides, the “percentage of RK13 cells with bound EHV1 particles” value in assay [4] is reported as 0.78% ± 0.76%. Moreover, the MIC in [5], in assay [6], in [7], in assay [8], in [9] and in assay [10] was more than 100 µg/mL each time. In addition, the “protection of cells from subsequent EIV infection” value in [11] is on record as “failed to protect”. In addition, the “protection of cells from subsequent EHV1 infection” value in assay [1] is listed as “failed to protect”. In addition, the “concentration of maximal migration of equine PMN cells” value in assay [12] was 1 ng/mL. For the same compound, the “EIV entry in EREC” value in assay [13] is on record as “no effect on EIV entry”. In addition, the “EIV infectivity in EREC” value in [13] is “did not alter EIV infectivity”. Besides, the “number of EHV1 particles bound per EHV1-positive EREC” value in [14] is listed as “did not significantly differ”. The “percentage of EREC with bound EHV1 particles” value in [14] is 17% ± 6%. Also, in assay [15], the “concentration of maximal migration of equine T lymphocytes” value (shortened to “concentration … of equine T lymphocytes”) is 1 µg/mL.

Take “MRILHFLLAFLIVFLLPVPGFTAGIETSFSCSQNGGFCISPKCLPGSKQIGTCILPGSKCCRKK (also: bicyclic or more (positions not given here)) [eBD2, chemically synthesized equine β-defensin, named according to its human homolog]”: the “infectivity of RacL11 ΔgM in RK13 cells” value in assay [16] is given as “diminished”. Further, in assay [2], the “formation of EAV plaques in RK13 cells” value is “decreased” and the “protection of cells from subsequent EAV infection” value is “failed to protect”. Further, in assay [3], the “chemotaxis of equine monocytic cells” value is “failed to induce”. In assay [4], the “percentage of RK13 cells with bound EHV1 particles” value is reported as 0.86% ± 0.97% and the “virus particles bound per positive RK13 cell, relative to eBD1 or control pretreatment” value was “up to 2 fold”. For the same compound, the MIC in assay [5] was more than 100 µg/mL. Further, in assay [6], the MIC was more than 100 µg/mL. The MIC in assay [7] was more than 100 µg/mL. The same compound showed an MIC in [8] of 25 µg/mL. In assay [9], this compound came in with an MIC of 100 µg/mL. Further, in assay [10], the MIC was more than 100 µg/mL. Besides, the “infectivity of RacL11 Δgp2 in RK13 cells” value in assay [17] is given as “increase in infectivity”. The “EHV1 infection of EREC” value in assay [18] was “not able to infect EREC more efficiently”. Moreover, the “infectivity of parental RacL11 strain in RK13 cells” value in assay [19] is given as “enhanced”. Also, in assay [11], the “formation of EIV plaques in MDCK cells” value was “decreased” and the “protection of cells from subsequent EIV infection” value is given as “failed to protect”. In [1], the “average EHV1 plaque diameter” value was “doubling”; the “increase in EHV1 infection in RK13 cells (number of plaques and plaque diameter)” value is reported as 3.5 fold; the “protection of cells from subsequent EHV1 infection” value was “failed to protect”. Moreover, in [13], the “EIV entry in EREC” value is listed as “no effect on EIV entry”, the “EIV infection of EREC” value is on record as “diminishing subsequent infection of EREC” and the “EIV infectivity in EREC” value was “did not alter EIV infectivity”. Further, in [14], the “number of EHV1 particles bound per EHV1-positive EREC” value is “did not significantly differ” and the “percentage of EREC with bound EHV1 particles” value was 17% ± 5%. For the same compound, the “concentration … of equine T lymphocytes” value in assay [15] came out at 1 µg/mL.

Consider “MRIHFLLFALLFLFLMPVPGNGGIINMLQKSYCKIRKGRCALLGCLPKEEQIGSCSVSGRKCCRKKK (also: bicyclic or more (positions not given here)) [eBD3, chemically synthesized equine β-defensin, named according to its human homolog]”, for which, in assay [2], the EAV infectivity result is on record as “no effect”, the “formation of EAV plaques in RK13 cells” value is recorded as “decreased” and the “protection of cells from subsequent EAV infection” value is “failed to protect”. In addition, the “concentration of maximal migration of equine monocytic cells” value in assay [3] (5-μm pores, RFU, three donor horses, P < 0.05) came to 1 µg/mL. Further, in assay [4], the “percentage of RK13 cells with bound EHV1 particles” value is listed as 1.26% ± 1.34% and the “virus particles bound per positive RK13 cell, relative to eBD1 or control pretreatment” value is “up to 2 fold”. This compound also came in with an MIC in [5] of 100 µg/mL. This compound had an MIC in [6] of 25 µg/mL. The MIC in assay [7] was more than 100 µg/mL. Moreover, the MIC in assay [8] was 25 µg/mL. Also, the MIC in assay [9] was determined as 100 µg/mL. This compound registered an MIC in [10] of more than 100 µg/mL. For the same compound, the “EHV1 infection of EREC” value in assay [18] is “not able to infect EREC more efficiently”. Moreover, in [11], the “EIV infection of MDCK cells” value is listed as “almost completely preventing infection”, the EIV infectivity result was “decreased”, the “formation of EIV plaques in MDCK cells” value is listed as “decreased” and the “protection of cells from subsequent EIV infection” value is given as “failed to protect”. Besides, in assay [1], the EHV1 infectivity entry is given as “no effect”; the “average EHV1 plaque diameter” value is listed as “doubling”; the “increase in EHV1 infection in RK13 cells (number of plaques and plaque diameter)” value is recorded as 3.5 fold; the “increase in susceptibility of RK13 cells to EHV1 (number of plaques)” value worked out at 1.5 fold. The “protection of cells from subsequent EHV1 infection” value in assay [1] is on record as “failed to protect”. Besides, the “concentration of maximal migration of equine PMN cells” value in assay [12] came out at 1 ng/mL. Moreover, in assay [13], the “EIV entry in EREC” value is reported as “no effect on EIV entry”, the “EIV infection of EREC” value is “diminishing subsequent infection of EREC” and the “EIV infectivity in EREC” value is recorded as “did not alter EIV infectivity”. In addition, in assay [14], the “number of EHV1 particles bound per EHV1-positive EREC” value is recorded as “doubled” and the “percentage of EREC with bound EHV1 particles” value was 36% ± 8%. Moreover, the “concentration … of equine T lymphocytes” value in assay [15] worked out at 1 µg/mL.
